In one data set the test system is Human RBCs. Kind of data set: OSCN^−/OCN^− effects on intact RBC glutathione, enzymes and hemolysis. It is filed as cell-based. The note with it: lysates and membranes of RBCs exposed to 100 μM OSCN^−/OCN^−; 10 mM DTT.
The conditions of data set [1]: intranasal 1 mM SCN^−, 1 mM Br^− or 100 μM NO2^−.
Protocol: The following experiment is performed to determine if by directly manipulating the relative substrate halide composition of the intrabronchial luminal contents, the severity of the resulting EPO-mediated oxidative damage and so the severity of the induced pathologies can be influenced. […] From the day before initiation of aerosol ovalbumin challenge, four groups of guinea pigs (n=15) are subjected to intranasal instillation of 300 μL of PBS (100 mM Cl^−), PBS+1 mM NaSCN, PBS+1 mM NaBr, or PBS+100 μmol NaNO2 in each nostril. Intranasal instillation is performed every 6 hours until the time of analysis. The numbers of animals in each group is determined from power calculations assuming unpaired design. A group size of 15 animals per group allows for detecting a change in Br—Y, PC50, and histologic severity index amongst the OVA-challenged animal of ≧125% of the S.D. of the experimental groups with 90% power, P<0.05.
As for Section VI, Example 10, pulmonary functions, and chloro-, bromo-, and NO2—Y in BAL and whole lung homogenates are determined. […] Multiple linear regression is used to determine factors responsible for changes in PC50 or histologic severity of airway damage. PC50 or histologic severity is treated as a continuous variable and correlated Br—Y and NO2—Y levels in BAL and whole lung by multiple regression.
Another data set deals with RBC ATPases. The data set can be described thus: Oxidant inactivation of RBC membrane ATPase activity. It is filed as biochemical, human. The settings on record: even at 1 mM.
The next data set has as its system mammalian cells. The data set can be described thus: Cytotoxicity of hypohalous acids for mammalian cells (51Cr release, hemolysis). It is filed as cell-based. The settings on record: two hours exposure. As to the method: (§1) To determine how generation of HOSCN subserves the physiological function of EOs, i.e., to destroy tissue-invasive parasites, the following experiment was performed. Reagent grade HOSCN was generated by (i) adding human EPO (10 μg/mL) and 1 mM NaSCN to Hank's buffer, (ii) adding five 100 μM boluses of H2O2 at 3 minute intervals, (iii) adding 20 μg/mL of catalase to consume unreacted H2O2, and (iv) removing protein by filtration through a PM-10 membrane (Amicon). HOSCN was then assayed by TNB titration. Mammalian cells used included cultured human and porcine aortic endothelium, rat cardiac myocytes, P338D1 murine lymphoma, and RBCs. Freshly transformed S. mansoni schistosomules (obtained from James Kazura at Case Western University) were also used. Both were exposed to reagent HOSCN for two hours, then assayed for cytotoxicity by (i) ^51Cr release, (ii) hemolysis (mammalian cells) or (iii) light microscopy observations of granularity, lack of motion, and methylene blue dye exclusion (somules). Results in Table 1 indicate that HOSCN killed both schistosomules and host cells. Whereas HOCl and HOBr were equally toxic for host cells and somules, HOSCN was 10-15 times more toxic for the parasite.

For data set [2], the system named is S. mansoni schistosomules. The data set can be described thus: Toxicity of hypohalous acids for schistosomules. It is filed as cell-based. The settings on record: for toxicity for the parasite relative to host cells: schistosomules vs mammalian cells; for LD50 for schistosomules: two hours exposure. How it is done:
as §1

For data set [3], the system named is human EOs. Kind of data set: EO-mediated nitration and bromination of HPA. It is filed as cell-based. The settings on record: PMA-activated EOs; for EO-mediated nitration of HPA: 50 μM NO2^−, 100 μM Br^−. How it is done: (§2) These studies were performed in the presence of CO2 (5% gas phase) and […] the medium (4.2 mM) to mimic a biologically relevant situation. Leukocytes ([…]) were incubated at 37° C. under 95% air, 5% CO2, in Medium A (Ca^2+/Mg^2+/phenol-free HBSS; Life Technologies, (Gaithersburg, Md.) supplemented with 100 μM NaBr, 50 μM L-arginine, and 200 μM DTPA, pH 7.4 final) in the absence or presence of NaNO2 (0<50 μM, as indicated in the figure legends). […] Cells were activated by addition of PMA (200 nM) and incubated for either 1 hour or the indicated time interval. In some experiments, EOs were activated in the presence of an exogenous NO source by addition of PAPA NONOate (Alexis) for 1 minute following PMA addition. Rates of NO flux were determined spectrophotometrically by reaction of NO with oxyhemoglobin as described in Baek et al. (Baek et al. (1993) J Biol Chem 268:21120) under the identical conditions used for experiments, but in the absence of any added cells. To maintain a final pH of 7.4 during experiments with PAPA NONOate, incubations were performed in Medium B (Medium A containing only 100 mM NaCl and supplemented with 20 mM sodium phosphate, pH 7.4). […] In some cases, leukocyte reaction mixtures also contained one of the following: 1 mM NaN3, 10 mM 3-aminotriazole (Atz), 300 nM catalase (Cat), 300 nM heat-inactivated catalase (hiCat), 10 μg/ml superoxide dismutase (SOD), 1 mM methionine (Met), or 1 mM N^α-acetyl lysine.
(§3) NO2—Y production by isolated EOs was quantified by reversed phase HPLC with photodiode array detection (see Wu et al. (1999) J Biol Chem 274:25933). […] The nitrated (NO2-HPA; 3-(4-hydroxy-3-nitrophenyl)propanoic acid), brominated (Br-HPA; 3-(3-bromo-4-hydroxyphenyl)propanoic acid), and chlorinated (Cl-HPA; 3-(3-chloro-4-hydroxyphenyl)propanoic acid) products of the tyrosine analog, HPA, were routinely quantified by reversed phase HPLC with electrochemical (coulometric) detection on an ESA CoulArray HPLC (Cambridge, Mass.) equipped with UV detector and electrochemical cells (eight channels) (Wu et al. (1999) J Biol Chem 274:25933). […] Authentic standards of NO2-HPA, Br-HPA, and Cl-HPA were prepared by reaction of HPA with a molar equivalent of ONOO^−, HOBr, or HOCl, respectively.
Use of this low molecular mass surrogate for a protein-bound tyrosine residue permitted more facile quantification of the relative capacity of EOs to promote aromatic nitration and halogenation reactions of phenolic targets.

The test system of data set [4] is human EOs. Kind of data set: NO2—Y formation by activated human EOs. It is filed as cell-based. The settings on record: agonist 100 nM, exogenous NO2^−. As to the method: as §2, with “HBSS;” for “HBSS; Life Technologies, (Gaithersburg, Md.) supplemented with 100 μM NaBr, 50 μM L-arginine, and 200 μM DTPA, pH 7.4 final) in the absence or presence of NaNO2 (0<50 μM, as indicated in the figure legends).”, “NO2—Y production by isolated EOs was quantified by reversed phase HPLC with photodiode array detection (see Wu et al. (1999) J Biol Chem 274:25933). […]” for “In some cases, leukocyte reaction mixtures also contained one of the following: 1 mM NaN3, 10 mM 3-aminotriazole (Atz), 300 nM catalase (Cat), 300 nM heat-inactivated catalase (hiCat), 10 μg/ml superoxide dismutase (SOD), 1 mM methionine (Met), or 1 mM N^α-acetyl lysine.”

The test system of the next data set is activated human EOs. The note with it: 5 mM azide.
The target in a further data set is MPO (Homo sapiens, UniProt P05164). The settings on record: pre-incubation of the enzyme solution.
Chain of MPO (P05164 279-745 limits assumed): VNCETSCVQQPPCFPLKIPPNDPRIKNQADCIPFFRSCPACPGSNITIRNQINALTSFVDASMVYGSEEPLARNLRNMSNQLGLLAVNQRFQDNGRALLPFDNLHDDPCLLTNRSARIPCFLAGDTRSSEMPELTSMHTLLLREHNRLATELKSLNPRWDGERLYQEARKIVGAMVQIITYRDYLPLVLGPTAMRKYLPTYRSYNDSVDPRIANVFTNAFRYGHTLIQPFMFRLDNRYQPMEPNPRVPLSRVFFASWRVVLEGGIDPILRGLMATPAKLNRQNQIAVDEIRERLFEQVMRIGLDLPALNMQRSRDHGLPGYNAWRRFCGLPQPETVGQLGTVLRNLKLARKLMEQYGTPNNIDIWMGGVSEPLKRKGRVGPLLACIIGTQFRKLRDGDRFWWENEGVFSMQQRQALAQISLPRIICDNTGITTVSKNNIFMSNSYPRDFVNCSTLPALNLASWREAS
Chain of MPO (P05164 165-273 limits assumed): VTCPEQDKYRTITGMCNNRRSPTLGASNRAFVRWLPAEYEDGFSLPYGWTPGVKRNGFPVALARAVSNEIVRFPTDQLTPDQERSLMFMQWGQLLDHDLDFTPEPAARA
A further data set has as its target EPO (Homo sapiens, UniProt P11678).
The test system of the next data set is activated EOs. The data set can be described thus: NO2-HPA formation by activated EOs with exogenous NO donor. It is filed as cell-based, human. How it is done:
as §2, §3

The mark [5] stands for this setting: high rates of NO flux (>2 μM/min).
The mark [6] stands for this setting: low rates of NO flux (<2 μM/min).

Chain of EPO (P11678 251-715 limits assumed): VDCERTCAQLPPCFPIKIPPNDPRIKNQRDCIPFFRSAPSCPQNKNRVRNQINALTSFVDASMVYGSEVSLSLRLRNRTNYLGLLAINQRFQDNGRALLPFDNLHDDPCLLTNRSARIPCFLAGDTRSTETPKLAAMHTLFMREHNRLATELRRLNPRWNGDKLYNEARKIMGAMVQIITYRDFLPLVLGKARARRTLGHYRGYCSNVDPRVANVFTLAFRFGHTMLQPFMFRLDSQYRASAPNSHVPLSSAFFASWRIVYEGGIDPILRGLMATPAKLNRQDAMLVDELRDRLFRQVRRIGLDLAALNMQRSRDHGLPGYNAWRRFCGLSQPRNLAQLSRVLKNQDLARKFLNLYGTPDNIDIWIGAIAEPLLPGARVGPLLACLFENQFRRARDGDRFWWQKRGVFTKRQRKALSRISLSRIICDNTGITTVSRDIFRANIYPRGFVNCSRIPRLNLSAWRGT
Chain of EPO (P11678 140-250 limits assumed): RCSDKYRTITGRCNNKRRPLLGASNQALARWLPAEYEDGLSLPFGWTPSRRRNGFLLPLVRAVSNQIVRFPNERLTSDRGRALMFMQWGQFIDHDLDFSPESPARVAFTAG
Protocol for EPO: To determine the relative time courses of HOSCN and cyanate generation, H2O2 was added to a reaction mixture containing phosphate buffered saline (PBS) with 1 mM KSCN, pH 7.4, and 0.4 μM EPO. H2O2 was added by continuous infusion at 50 μM/minute for 20 minutes to simulate the continuous generation of H2O2 by the respiratory burst of an activated EO. An aliquot was (i) removed from the reaction mixture prior to and at various time intervals after initiating addition of H2O2, (ii) supplemented with 40 μg/mL catalase to consume unreacted H2O2, and (iii) placed on ice until subsequent assay of oxidants and cyanate as described.
H2O2 was continuously infused at 50 μM/minute for 20 minutes, simulating the continuous generation of H2O2 by the respiratory burst of an activated EO. Aliquots were removed from the reaction mixture at one-minute intervals and catalase was added to destroy excess unreacted H2O2 prior to assay of TNB-reactive substances and cyanate.
Protocol for Human RBCs: After 30 minutes, cells were pelleted by centrifugation at 2000×g for 3 minutes and washed three times in ice-cold HEPES/Hanks' (H & H) buffer. […] RBC lysates and membranes were then prepared by hypotonic lysis and assayed for glutathione and glyceraldehyde-3-phosphate dehydrogenase (GAPDH), glutathione-S-transferase (GST), and lactate dehydrogenase (LDH) activity as described by Beutler (see Beutler (1974) Red Cell Metabolism A Manual of Biochemical Methods Grune and Stratton, Inc., Orlando, Fla.) and for ATPase activity as described below. Hemolysates were incubated for an additional 15 minute with or without 10 mM DTT and reassayed for GAPDH, GST, and ATPases.
Intracellular levels of the SH-containing oxidant scavenger glutathione were assayed. In addition, the activities of three enzymes, GST, GAPDH, and membrane ATPases, which are known to be vulnerable to SH-oxidation-based inactivation, as well as LDH which is not prone to such inactivation were assayed.
Protocol for MPO: Initial experiments utilized an NO-selective electrode (ISO-NO Mark II, World Precision Instruments, Sarasota, Fla.) to determine whether NO serves as a general substrate for peroxidases. Reactions were performed under conditions where peroxidases were present in catalytic amounts Experiments were performed at 25° C. by immersing the electrode in 10 mL of 0.2 M sodium phosphate buffer, pH 7.0, under air. NO was added to continuously stirred buffer solution from an NO-saturated stock and the rise and fall in NO concentration was continuously monitored using a chart recorder. To determine the effect of H202 and peroxidases on NO levels during steady state catalysis, 10 μl H202 (100 μM final) and 50 μL enzyme (150 nM final) were added to the reaction mixture. Where indicated, solutions were supplemented with NaCl (100 mM) and/or a cell-free O2^.−-generating system comprised of lumazine (0.4 mm) and bovine milk xanthine oxidase (XO, Boehringer Mannheim).
To examine the potential physiological significance of these observations, the effect of additional substrates on peroxidase-catalyzed consumption of NO was examined. MPO was initially used as a model peroxidase because of its abundance at sites of leukocyte recruitment and activation during inflammation and its well-known use of the abundant halide Cl^− as substrate.
Description for RBC ATPases: Membrane preparations rather than intact RBC were used to allow all oxidants equal access to intra- and extracellular membrane components.

Regarding `O[C@H](CS)[C@H](O)CS` (racemic) [DTT, dithiothreitol], the “GST, GAPDH and ATPase activity after OSCN^−/OCN^− exposure” value with Human RBCs is “completely restored the activities of all three enzymes”.

As to `Br` [Br^−, bromide], the “levels of Br—Y and NO2—Y and severity of resulting asthma” value in [1] is “increase”.

In the case of `OO` [H2O2, hydrogen peroxide], the “inactivation of RBC ATPases” value with RBC ATPases is “failed to inactivate ATPases”.

Consider `OBr` [HOBr, hypobromous acid], for which the “LD50 for mammalian cells” value with mammalian cells lay within 10 to 33 µM. In [2], the “toxicity for the parasite relative to host cells” value is “equally toxic” and the LD50 for schistosomules was determined as 10 µM.

In the case of `OCl` [HOCI, hypochlorous acid], the “LD50 for mammalian cells” value with mammalian cells lay in the range of 10 to 33 µM. Also, in data set [2], the “toxicity for the parasite relative to host cells” value was “equally toxic” and the LD50 for schistosomules turned out to be 10 µM.

Regarding `N#CSO` [HOSCN], the “LD50 for mammalian cells” value with mammalian cells is 200 to 300 µM. Further, in data set [2], the “toxicity for the parasite relative to host cells” value was 10-15 times and the LD50 for schistosomules is 20 µM.

For `CC(=O)N[C@@H](CCCCN)C(=O)O` [N-acetyl lysine, N^α-acetyl lysine], in the data set on human EOs [3], the “cell-dependent bromination of HPA” value is given as “lack of inhibition”.

As to `CSCC[C@H](NC=O)C(=O)N[C@@H](CC(C)C)C(=O)N[C@@H](Cc1ccccc1)C(=O)O` [N-formyl-methionyl-leucyl-phenylalanine], the “NO2—Y levels produced, less than with PMA-stimulated EOs” value in the data set on human EOs [4] is 8 fold.

With `O=NO` [NO2^−, nitrite], the “levels of Br—Y and NO2—Y and severity of resulting asthma” value in data set [1] was “increase”.

`[N-]=[N+]=[N-].[Na+]` [azide, sodium azide]: the “EO-mediated nitration of HPA” value in the data set on human EOs [3] is reported as “inhibited”. The “PMA-stimulated generation of HOSCN and OCN^−” value with activated human EOs is listed as “severely attenuated”. Further, the “NO consumption by MPO” value at MPO is on record as “prevented”. Besides, the “generation of both HOSCN and OCN^−” value on EPO (azide 1 mM) is “nearly completely blocked”. Further, the “HOSCN levels at plateau stage of progression curve” value on EPO (azide added during H2O2 infusion) is “abrupt collapse of HOSCN levels”. Besides, the NO2-HPA formation entry is recorded as “increasingly less sensitive to inhibition” with activated EOs (setting [5]) and “inhibited” in the data set with activated EOs (setting [6]).

As for `CSCC[C@H](N)C(=O)O` [methionine], the “EO-mediated nitration of HPA” value in the data set with human EOs [3] is reported as “inability of the HOBr scavenger methionine to affect nitration”.

B1: catalase: hydrogen peroxide scavenger (protein, UniProt P00432 2-527, looked up)
Catalase: ADNRDPASDQMKHWKEQRAAQKPDVLTTGGGNPVGDKLNSLTVGPRGPLLVQDVVFTDEMAHFDRERIPERVVHAKGAGAFGYFEVTHDITRYSKAKVFEHIGKRTPIAVRFSTVAGESGSADTVRDPRGFAVKFYTEDGNWDLVGNNTPIFFIRDALLFPSFIHSQKRNPQTHLKDPDMVWDFWSLRPESLHQVSFLFSDRGIPDGHRHMNGYGSHTFKLVNANGEAVYCKFHYKTDQGIKNLSVEDAARLAHEDPDYGLRDLFNAIATGNYPSWTLYIQVMTFSEAEIFPFNPFDLTKVWPHGDYPLIPVGKLVLNRNPVNYFAEVEQLAFDPSNMPPGIEPSPDKMLQGRLFAYPDTHRHRLGPNYLQIPVNCPYRARVANYQRDGPMCMMDNQGGAPNYYPNSFSAPEHQPSALEHRTHFSGDVQRFNSANDDNVTQVRTFYLKVLNEEQRKRLCENIAGHLKDAQLFIQKKAVKNFSDVHPEYGSRIQALLDKYNEEKPKNAVHTYVQHGSHLSAREKANL
On to B1, for which the “EO-mediated nitration of HPA” value with human EOs [3] is given as “inhibited”. The NO2-HPA formation entry in the data set on activated EOs (setting [5]) is reported as “increasingly less sensitive to inhibition”; with activated EOs (setting [6]) it was “significantly attenuated”.
